Here are results for 17 compounds from patent US9708336B2, “Metallo-beta-lactamase inhibitors” (priority 2014, dated 2017).

Where two headings read alike, the source gives them in different places.

As usually defined, the IC50 is the concentration at which inhibition is half-maximal.

The target in one test is IMP-1 (Serratia marcescens, UniProt P52699). Put plainly: biochemical. In kind it is biochemical. The following applies: IMP-1 enzyme, CCF2-FA fluorescence assay; read-out: IMP-1 IC50.
Another test concerns the target VIM-1 (Pseudomonas aeruginosa (strain ATCC 15692 / DSM 22644 / CIP 104116 / JCM 14847 / LMG 12228 / 1C / PRS 101 / PAO1), UniProt A0A0F7KYQ8). Description: Enzyme activity: determination of IC50, fluorescence assay with CCF2-FA substrate (VIM-1). To be noted: CCF2-FA fluorescence assay. In kind it is biochemical.
A further test deals with NDM-1 (Klebsiella pneumoniae, UniProt C7C422). Description: biochemical. In kind it is biochemical. To be noted: NDM-1 enzyme, CCF2-FA fluorescence assay; read-out: NDM-1 IC50.
The subject of test [1] is Klebsiella pneumoniae expressing VIM-1 (IHMA599644). Put plainly: Antibiotic potentiation activity: synergistic concentration (MITC95) with imipenem, OD600 growth. The following applies: Klebsiella pneumoniae expressing VIM-1 (IHMA599644), 95% growth inhibition. In kind it is cell-based. The essentials: (§1)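 CLB30005 was precultured on Mueller Hinton agar with 8 ug/ml imipenem, the other strains on trypticase soy agar with 5% sheep blood, overnight at 35 °C. Saline suspensions diluted 1:100 in 1.1× CAMHB received compound and 4 μg/ml imipenem, then 22–24 h at 35 °C before absorbance reading.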

Test [2] has as its system Serratia marcescens expressing IMP-1 (CL5741). The test is described as above. In kind it is cell-based. To be noted: Serratia marcescens expressing IMP-1 (CL5741), 95% growth inhibition. The essentials:
as §1

In test [3] the test system is Escherichia coli expressing NDM-1 (CLB30016). The description is as above. To be noted: Escherichia coli expressing NDM-1 (CLB30016), 95% growth inhibition. In kind it is cell-based. An outline of the steps: as §1
Setting [4] is: VIM-1 enzyme, read-out: VIM-1 IC50.

Sequence of NDM-1 (C7C422 whole entry, looked up, species assumed): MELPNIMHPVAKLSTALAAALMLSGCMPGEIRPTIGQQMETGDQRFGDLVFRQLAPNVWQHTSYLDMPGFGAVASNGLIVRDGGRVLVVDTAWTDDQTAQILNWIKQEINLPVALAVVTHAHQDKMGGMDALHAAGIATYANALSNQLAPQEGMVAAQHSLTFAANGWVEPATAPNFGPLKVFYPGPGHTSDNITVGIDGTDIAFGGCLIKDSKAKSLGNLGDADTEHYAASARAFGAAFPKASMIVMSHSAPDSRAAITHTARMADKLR
Sequence of IMP-1 (P52699 whole entry, looked up): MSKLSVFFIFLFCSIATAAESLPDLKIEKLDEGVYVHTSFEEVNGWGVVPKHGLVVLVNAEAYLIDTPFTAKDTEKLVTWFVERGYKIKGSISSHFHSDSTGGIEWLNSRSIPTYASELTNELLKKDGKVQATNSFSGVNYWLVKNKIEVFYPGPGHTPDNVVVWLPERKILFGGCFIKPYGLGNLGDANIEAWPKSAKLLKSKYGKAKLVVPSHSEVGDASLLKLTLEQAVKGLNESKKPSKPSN

In the case of `NS(=O)(=O)c1c(-c2ccc(C3CCNCC3)cc2)ccc(-c2ccc(C3CCNCC3)cc2)c1-c1nn[nH]n1` [Example 430, 3,6-bis[4-(4-piperidyl)phenyl]-2-(2H-tetrazol-5-yl)benzenesulfonamide], the 50% inhibitory concentration (IC50) at IMP-1 was 6.38 nM; against VIM-1 (VIM-1 IC50, VIM-1 enzyme), 50.8 nM; at NDM-1, 52.3 nM. Besides, the “Klebsiella pneumoniae MITC95” value in test [1] is 3.125 µM. Further, in test [2], the “Serratia marcescens MITC95” value turned out to be 0.3906 µM. For the same compound, the “Escherichia coli MITC95” value in test [3] is 1.563 µM.
`NS(=O)(=O)c1c(C(F)(F)F)ccc(CC[C@H]2CC[C@H](N)CC2)c1-c1nn[nH]n1` [Example 431, 3-(2-((1r,4s)-4-aminocyclohexyl)ethyl)-2-(2H-tetrazol-5-yl)-6-(trifluoromethyl)benzenesulfonamide]: the IC50 at IMP-1 is 3.75 nM; at VIM-1 (setting [4]) it was 0.432 nM; at NDM-1, 17.9 nM. Also, the “Klebsiella pneumoniae MITC95” value in test [1] was found to be 1.531 µM. Also, in test [2], the “Serratia marcescens MITC95” value was 0.125 µM. Moreover, the “Escherichia coli MITC95” value in test [3] turned out to be 2.563 µM.
As to `NS(=O)(=O)c1c(C(F)(F)F)ccc(CC[C@H]2CC[C@@H](N)CC2)c1-c1nn[nH]n1` [Example 432, 3-(2-((1s,4r)-4-aminocyclohexyl)ethyl)-2-(2H-tetrazol-5-yl)-6-(trifluoromethyl)benzenesulfonamide], the results for the half-maximal inhibitory concentration (IC50) on IMP-1, at VIM-1 (setting [4]) and on NDM-1 were 11.7 nM, 4.72 nM and 47.9 nM, respectively. Besides, in test [1], the “Klebsiella pneumoniae MITC95” value turned out to be 18.75 µM. In addition, the “Serratia marcescens MITC95” value in test [2] turned out to be 0.3906 µM. For the same compound, the “Escherichia coli MITC95” value in test [3] worked out at 6.25 µM.
Regarding `NS(=O)(=O)c1c(C(F)(F)F)ccc(-c2ccc(C3CNC3)cc2)c1-c1nn[nH]n1` [Example 433, 4′-(azetidin-3-yl)-2-(2H-tetrazol-5-yl)-4-(trifluoromethyl)-[1,1′-biphenyl]-3-sulfonamide], the IC50 was found to be 0.563 nM at IMP-1, 0.984 nM at VIM-1 (setting [4]) and 0.875 nM on NDM-1. In test [1], the “Klebsiella pneumoniae MITC95” value was determined as 0.7656 µM. The “Serratia marcescens MITC95” value in test [2] turned out to be 0.1875 µM. Moreover, the “Escherichia coli MITC95” value in test [3] was determined as 0.6406 µM.
`N=C(N)N1CC(c2ccc(-c3ccc(C(F)(F)F)c(S(N)(=O)=O)c3-c3nn[nH]n3)cc2)C1` [Example 434, 3-(3′-sulfamoyl-2′-(2H-tetrazol-5-yl)-4′-(trifluoromethyl)-[1,1′-biphenyl]-4-yl)azetidine-1-carboximidamide]: the IC50 on IMP-1 was determined as 1.85 nM; at VIM-1 (setting [4]), 0.175 nM; at NDM-1 it was 1.78 nM. Further, the “Klebsiella pneumoniae MITC95” value in test [1] turned out to be 0.7656 µM. The “Serratia marcescens MITC95” value in test [2] was found to be 0.09375 µM. The “Escherichia coli MITC95” value in test [3] came out at 0.543 µM.
Take `C[N+]1(C)CC(c2ccc(-c3ccc(C(F)(F)F)c(S(N)(=O)=O)c3-c3nn[nH]n3)cc2)C1` [Example 435, 1,1-dimethyl-3-(3′-sulfamoyl-2′-(2H-tetrazol-5-yl)-4′-(trifluoromethyl)-[1,1′-biphenyl]-4-yl)azetidin-1-ium]: the concentration for half-maximal inhibition (IC50) came out at 11.1 nM on IMP-1, 2.37 nM on VIM-1 (setting [4]) and 12 nM at NDM-1. The “Klebsiella pneumoniae MITC95” value in test [1] was 3.125 µM. In addition, in test [2], the “Serratia marcescens MITC95” value turned out to be 0.25 µM. Also, the “Escherichia coli MITC95” value in test [3] is 1.281 µM.
`NC1(c2ccc(-c3ccc(C(F)(F)F)c(S(N)(=O)=O)c3-c3nn[nH]n3)cc2)CCNCC1` [Example 436, 4′-(4-aminopiperidin-4-yl)-2-(2H-tetrazol-5-yl)-4-(trifluoromethyl)-[1,1′-biphenyl]-3-sulfonamide]: the IC50 stood at 12.8 nM on IMP-1, 3.04 nM at VIM-1 (setting [4]) and 9.32 nM at NDM-1. Moreover, the “Klebsiella pneumoniae MITC95” value in test [1] was determined as 0.8542 µM. Also, the “Serratia marcescens MITC95” value in test [2] was 0.2552 µM. For the same compound, the “Escherichia coli MITC95” value in test [3] was 0.375 µM.
In the case of `N=CN1CCC(N)(c2ccc(-c3ccc(C(F)(F)F)c(S(N)(=O)=O)c3-c3nn[nH]n3)cc2)CC1` [Example 437, 4′-(4-amino-1-(iminomethyl)piperidin-4-yl)-2-(2H-tetrazol-5-yl)-4-(trifluoromethyl)-[1,1′-biphenyl]-3-sulfonamide], the IC50 at IMP-1 is 7.82 nM; at VIM-1 (setting [4]), 8 nM; at NDM-1, 7.95 nM. Moreover, in test [1], the “Klebsiella pneumoniae MITC95” value was 3.125 µM. In test [2], the “Serratia marcescens MITC95” value was 0.3906 µM. In addition, the “Escherichia coli MITC95” value in test [3] came out at 0.3906 µM.
For the compound `N=C(N)N1CCC(N)(c2ccc(-c3ccc(C(F)(F)F)c(S(N)(=O)=O)c3-c3nn[nH]n3)cc2)CC1` [Example 438, 4-amino-4-(3′-sulfamoyl-2′-(2H-tetrazol-5-yl)-4′-(trifluoromethyl)-[1,1′-biphenyl]-4-yl)piperidine-1-carboximidamide], the IC50 on IMP-1 was 4.05 nM; against VIM-1 (VIM-1 IC50, VIM-1 enzyme), 10.8 nM; at NDM-1 it was 3.67 nM. For the same compound, in test [1], the “Klebsiella pneumoniae MITC95” value amounted to 2.563 µM. The “Serratia marcescens MITC95” value in test [2] amounted to 0.25 µM. Besides, the “Escherichia coli MITC95” value in test [3] was 0.125 µM.
As to `NCc1ccc(-c2ccc(C(F)(F)F)c(S(N)(=O)=O)c2-c2nn[nH]n2)cc1` [Example 439, 4′-(aminomethyl)-2-(2H-tetrazol-5-yl)-4-(trifluoromethyl)-[1,1′-biphenyl]-3-sulfonamide], the IC50 is 20.6 nM at IMP-1, 4.05 nM on VIM-1 (setting [4]) and 11.9 nM at NDM-1. In addition, the “Klebsiella pneumoniae MITC95” value in test [1] worked out at 1.563 µM. The “Serratia marcescens MITC95” value in test [2] turned out to be 0.5859 µM. Moreover, the “Escherichia coli MITC95” value in test [3] was found to be 0.7813 µM.
Turning to `N=C(N)NCc1ccc(-c2ccc(C(F)(F)F)c(S(N)(=O)=O)c2-c2nn[nH]n2)cc1` [Example 440, 4′-(guanidinomethyl)-2-(2H-tetrazol-5-yl)-4-(trifluoromethyl)-[1,1′-biphenyl]-3-sulfonamide], the IC50 at IMP-1 turned out to be 3.37 nM; at VIM-1 (setting [4]), 0.357 nM; on NDM-1, 3.91 nM. Also, in test [1], the “Klebsiella pneumoniae MITC95” value turned out to be 0.7656 µM. In test [2], the “Serratia marcescens MITC95” value came to 0.0625 µM. Also, the “Escherichia coli MITC95” value in test [3] is 0.25 µM.
Regarding `NS(=O)(=O)c1c(C(F)(F)F)ccc(-c2ccc3c(c2)CNC3)c1-c1nn[nH]n1` [Example 441, 3-(isoindolin-5-yl)-2-(2H-tetrazol-5-yl)-6-(trifluoromethyl)benzenesulfonamide], the results for the concentration for half-maximal inhibition (IC50) at IMP-1, at VIM-1 (setting [4]) and at NDM-1 were 22.1 nM, 0.838 nM and 11.3 nM, respectively. The “Klebsiella pneumoniae MITC95” value in test [1] stood at 0.7813 µM. Besides, the “Serratia marcescens MITC95” value in test [2] worked out at 1.563 µM. Also, in test [3], the “Escherichia coli MITC95” value is 1.172 µM.
For `NC1Cc2ccc(-c3ccc(C(F)(F)F)c(S(N)(=O)=O)c3-c3nn[nH]n3)cc2C1` (stereo not drawn) [Example 442, 3-(2-amino-2,3-dihydro-1H-inden-5-yl)-2-(2H-tetrazol-5-yl)-6-(trifluoromethyl)benzenesulfonamide], the values for the IC50 at IMP-1, at VIM-1 (setting [4]) and at NDM-1 were 16.5 nM, 0.268 nM and 11.8 nM, respectively. Further, the “Klebsiella pneumoniae MITC95” value in test [1] is 0.7813 µM. Moreover, in test [2], the “Serratia marcescens MITC95” value was 0.5859 µM. Further, the “Escherichia coli MITC95” value in test [3] is 1.172 µM.
`NS(=O)(=O)c1c(C(F)(F)F)ccc(-c2ccc(C3CCNC3)cc2)c1-c1nn[nH]n1` (stereo not drawn) [Example 443, 4′-(pyrrolidin-3-yl)-2-(2H-tetrazol-5-yl)-4-(trifluoromethyl)-[1,1′-biphenyl]-3-sulfonamide]: the IC50 worked out at 1.34 nM on IMP-1, 0.497 nM at VIM-1 (setting [4]) and 0.909 nM on NDM-1. The “Klebsiella pneumoniae MITC95” value in test [1] amounted to 0.8906 µM. In addition, the “Serratia marcescens MITC95” value in test [2] was 0.09375 µM. In addition, in test [3], the “Escherichia coli MITC95” value came out at 0.7734 µM.
For `C[N+]1(C)CCC(c2ccc(-c3ccc(C(F)(F)F)c(S(N)(=O)=O)c3-c3nn[nH]n3)cc2)C1` (stereo not drawn) [Example 444, 1,1-dimethyl-3-(3′-sulfamoyl-2′-(2H-tetrazol-5-yl)-4′-(trifluoromethyl)-[1,1′-biphenyl]-4-yl)pyrrolidin-1-ium], the IC50 on IMP-1 is 3.27 nM; on VIM-1 (setting [4]), 1.35 nM; on NDM-1, 2.5 nM. Besides, the “Klebsiella pneumoniae MITC95” value in test [1] is 4.688 µM. The “Serratia marcescens MITC95” value in test [2] came out at 0.3906 µM. In test [3], the “Escherichia coli MITC95” value stood at 2.344 µM.
Regarding `NS(=O)(=O)c1c(C(F)(F)F)ccc(-c2ccc(CO)cc2)c1-c1nn[nH]n1` [Example 445, 4′-(hydroxymethyl)-2-(2H-tetrazol-5-yl)-4-(trifluoromethyl)-[1,1′-biphenyl]-3-sulfonamide], the half-maximal inhibitory concentration (IC50) came out at 1.17 nM on IMP-1, 1.34 nM on VIM-1 (setting [4]) and 1.28 nM on NDM-1. In addition, the “Klebsiella pneumoniae MITC95” value in test [1] turned out to be 4.688 µM. The “Serratia marcescens MITC95” value in test [2] was 0.125 µM. Also, the “Escherichia coli MITC95” value in test [3] turned out to be 1.547 µM.
For `N=C(N)N1Cc2ccc(-c3ccc(C(F)(F)F)c(S(N)(=O)=O)c3-c3nn[nH]n3)cc2C1` [Example 446, 5-(3-sulfamoyl-2-(2H-tetrazol-5-yl)-4-(trifluoromethyl)phenyl)isoindoline-2-carboximidamide], the IC50 amounted to 19.4 nM at IMP-1, 0.252 nM at VIM-1 (setting [4]) and 15.4 nM on NDM-1. In test [1], the “Klebsiella pneumoniae MITC95” value turned out to be 1.563 µM. In addition, the “Serratia marcescens MITC95” value in test [2] came out at 0.3906 µM. Besides, in test [3], the “Escherichia coli MITC95” value was found to be 1.563 µM.
